# Experimental data taken from US20250236608A1, “EGFR INHIBITORS” (Blueprint Medicines Corporation, priority 2022, published 2025).
# Experiments:
# [1] = molecular target: EGFR (d746-750) (Homo sapiens (Human), UniProt P00533, DEL746-750); assay: Biochemical EGFR inhibition assay, EGFR (d746-750); details: Caliper mobility shift; 1.0 mM ATP or ATP Km; read-out: Enz EGFR_Exon19-del746-750 IC50
# Experimental: (§1) Reactions proceeded until between 10% to 20% total peptides were phosphorylated at room temperature (25° C.) and were terminated with 35 mM 2,2′,2″,2″-(ethane-1,2-diyldinitrilo)tetraacetic acid (EDTA). Product was detected using the Caliper mobility shift detection method where the phosphorylated peptide (product) and substrate were electrophoretically separated and measured. Percent activity was plotted against log concentration of compound and points to generate an apparent IC50.
# [2] = molecular target: pEGFR (Tyr1068) in PC-9 cells (Ex19Del) (Homo sapiens (Human), UniProt P00533, DEL746-750); assay: PC-9 pEGFR AlphaLISA assay; format: cell-based; details: 4 hours incubation, p-EGFR (Tyr1068) AlphaLISA, read-out: Ext pEGFR_PC-9 Ex19Del IC50
# Chain of pEGFR (Tyr1068) in PC-9 cells (Ex19Del) (P00533 other isoform, or with tags, fused parts or gaps del 746-750): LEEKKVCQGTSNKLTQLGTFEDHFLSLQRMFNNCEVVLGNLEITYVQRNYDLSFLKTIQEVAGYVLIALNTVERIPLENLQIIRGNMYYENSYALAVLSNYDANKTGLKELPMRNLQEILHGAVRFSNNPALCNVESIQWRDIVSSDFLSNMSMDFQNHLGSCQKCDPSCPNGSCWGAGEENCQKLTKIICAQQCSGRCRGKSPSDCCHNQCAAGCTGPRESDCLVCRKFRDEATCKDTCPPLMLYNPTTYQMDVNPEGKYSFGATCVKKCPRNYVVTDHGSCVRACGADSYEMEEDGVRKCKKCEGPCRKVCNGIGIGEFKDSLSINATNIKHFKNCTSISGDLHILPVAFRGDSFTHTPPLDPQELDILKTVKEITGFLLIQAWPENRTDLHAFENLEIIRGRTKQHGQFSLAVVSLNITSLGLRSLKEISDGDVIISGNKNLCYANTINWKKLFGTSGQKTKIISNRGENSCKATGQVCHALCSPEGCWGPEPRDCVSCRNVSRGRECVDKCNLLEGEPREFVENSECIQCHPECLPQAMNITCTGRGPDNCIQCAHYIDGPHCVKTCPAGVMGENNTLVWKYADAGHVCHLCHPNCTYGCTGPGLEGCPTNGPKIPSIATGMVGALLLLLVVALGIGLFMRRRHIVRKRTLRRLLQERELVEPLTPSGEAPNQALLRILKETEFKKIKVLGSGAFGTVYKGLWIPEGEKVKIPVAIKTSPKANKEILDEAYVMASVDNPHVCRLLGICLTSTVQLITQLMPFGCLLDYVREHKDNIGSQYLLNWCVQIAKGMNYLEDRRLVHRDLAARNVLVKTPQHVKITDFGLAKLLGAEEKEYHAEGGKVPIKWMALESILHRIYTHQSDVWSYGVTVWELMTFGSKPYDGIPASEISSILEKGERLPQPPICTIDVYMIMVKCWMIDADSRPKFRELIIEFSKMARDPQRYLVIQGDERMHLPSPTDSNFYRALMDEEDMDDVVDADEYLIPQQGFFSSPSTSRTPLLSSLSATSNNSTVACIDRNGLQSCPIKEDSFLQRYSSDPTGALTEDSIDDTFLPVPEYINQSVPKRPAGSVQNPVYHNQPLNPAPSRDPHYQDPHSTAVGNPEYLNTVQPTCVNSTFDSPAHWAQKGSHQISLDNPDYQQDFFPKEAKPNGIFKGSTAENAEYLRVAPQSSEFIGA
# Experimental: PC-9/A431 pEGFR AlphaLISA Assays
# Inhibitory effects of compounds were evaluated in cellular assays that measure level of intracellular phosphorylation of EGFR in PC-9 (ECACC, #90071810, Milipore/Sigma) and A431 cell lines (ATCC, CRL-1555) using AlphaLISA sureFire ultra p-EGFR (Tyr1068) assay kit (PerkinElmer, ALSU-PEGFR-A50K). PC-9 cells were seeded at 3.125×10^5 cells/ml in 40 μL phenol-free DMEM supplemented with 10% FBS per well of a 384 well plate (Corning, 3764), while A431 were seeded at 3.125×10^5 cells/ml in 40 μL in phenol-free DMEM with 0.5% FBS. Cells were allowed to adhere overnight at 37° C./5% CO2. On the next day, compounds were transferred at 4-fold, 10-point serial dilution from compound source plate to cell plates using liquid handler Echo550 and were incubated at 37° C./5% CO2 for 4 hours. A431 cells were stimulated prior harvesting for 10 min with EGF at final concentration of 30 ng/ml in the incubator. Medium was removed from the plates and cells were lysed with 10 μL of 1× AlphaLISA lysis buffer (supplemented with 1× protease/phosphatase inhibitor cocktail) followed by shaking at 600 rpm for 30 minutes at room temperature. Lysates were transferred to Optiplate (Apricot designs) and 5 μl of 1× acceptor bead mix (prepared just before use) was added to each well followed by incubation at room temperature for 1.5-2 h in dark. Then 5 μL of freshly-made donor bead mix is added to each well under subdued lighting or green filters, was mixed well on the shaker and the plate was sealed and left for an overnight incubation at room temperature in dark. On the next day, the plate was read the Envision using standard AlphaLisa settings. Percent of pEGFR inhibition was plotted against log concentration of compounds to generate IC50 values.
# [3] = molecular target: EGFR L858R (Homo sapiens (Human), UniProt P00533, L858R); assay: Biochemical EGFR inhibition assay, EGFR L858R; details: Caliper mobility shift; 1.0 mM ATP or ATP Km; read-out: Enz EGFR_L858R IC50
# Chain of EGFR L858R (P00533 25-1210 L858R): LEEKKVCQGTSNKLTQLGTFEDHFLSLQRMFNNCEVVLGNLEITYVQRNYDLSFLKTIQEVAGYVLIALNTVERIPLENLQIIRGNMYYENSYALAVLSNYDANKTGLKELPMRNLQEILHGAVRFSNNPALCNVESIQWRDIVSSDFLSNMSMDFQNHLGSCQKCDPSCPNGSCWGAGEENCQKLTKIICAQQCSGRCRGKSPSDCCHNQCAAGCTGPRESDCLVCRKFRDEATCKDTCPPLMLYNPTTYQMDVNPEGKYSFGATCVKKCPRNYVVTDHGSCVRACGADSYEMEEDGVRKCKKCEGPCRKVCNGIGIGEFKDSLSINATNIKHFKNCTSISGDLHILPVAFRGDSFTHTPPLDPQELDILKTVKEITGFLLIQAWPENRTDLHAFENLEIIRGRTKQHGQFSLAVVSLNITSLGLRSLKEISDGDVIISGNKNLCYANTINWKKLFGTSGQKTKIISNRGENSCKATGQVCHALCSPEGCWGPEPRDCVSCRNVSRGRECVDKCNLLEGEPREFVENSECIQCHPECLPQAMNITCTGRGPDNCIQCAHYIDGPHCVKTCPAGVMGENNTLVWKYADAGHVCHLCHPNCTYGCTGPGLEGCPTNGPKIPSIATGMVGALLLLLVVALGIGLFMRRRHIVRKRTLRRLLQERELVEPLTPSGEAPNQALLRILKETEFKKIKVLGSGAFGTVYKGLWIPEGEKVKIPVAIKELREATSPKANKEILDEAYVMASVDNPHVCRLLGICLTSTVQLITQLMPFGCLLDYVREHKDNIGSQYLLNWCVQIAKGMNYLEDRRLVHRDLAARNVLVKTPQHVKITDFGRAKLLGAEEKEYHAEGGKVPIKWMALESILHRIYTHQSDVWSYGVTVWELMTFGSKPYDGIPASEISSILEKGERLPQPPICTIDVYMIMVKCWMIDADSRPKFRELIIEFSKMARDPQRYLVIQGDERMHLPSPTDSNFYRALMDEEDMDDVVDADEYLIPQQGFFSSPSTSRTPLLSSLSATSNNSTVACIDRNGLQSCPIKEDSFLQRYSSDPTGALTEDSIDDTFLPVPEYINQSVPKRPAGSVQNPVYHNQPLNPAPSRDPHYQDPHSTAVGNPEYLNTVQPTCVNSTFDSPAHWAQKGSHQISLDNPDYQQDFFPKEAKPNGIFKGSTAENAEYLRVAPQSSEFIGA
# Experimental: as §1
# Chain of EGFR (d746-750) (P00533 other isoform, or with tags, fused parts or gaps del 1-694/del 746-750 limits assumed): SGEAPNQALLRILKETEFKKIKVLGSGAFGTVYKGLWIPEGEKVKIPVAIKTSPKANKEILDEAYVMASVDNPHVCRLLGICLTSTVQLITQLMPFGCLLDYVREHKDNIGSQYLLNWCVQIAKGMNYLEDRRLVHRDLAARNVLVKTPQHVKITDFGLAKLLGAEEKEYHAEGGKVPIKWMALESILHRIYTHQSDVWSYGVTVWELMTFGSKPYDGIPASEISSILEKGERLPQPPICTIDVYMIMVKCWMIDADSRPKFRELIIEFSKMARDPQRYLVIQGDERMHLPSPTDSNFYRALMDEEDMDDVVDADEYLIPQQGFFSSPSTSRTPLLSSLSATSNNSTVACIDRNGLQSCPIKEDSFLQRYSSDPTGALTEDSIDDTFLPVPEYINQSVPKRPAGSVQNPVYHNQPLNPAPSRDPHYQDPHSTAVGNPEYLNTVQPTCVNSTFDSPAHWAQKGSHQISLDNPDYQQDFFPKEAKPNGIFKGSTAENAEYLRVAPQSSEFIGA
Compound,IC50 [1] [nM],IC50 [2] [nM],IC50 [3] [nM]
"COc1cc2ncnc(-c3cn(C)nc3-c3ccccc3)c2cc1-c1cnc2c(ccn2C)c1 [Example 140, 7-methoxy-6-(1-methyl-1H-pyrrolo[2,3-b]pyridin-5-yl)-4-(1-methyl-3-phenyl-1H-pyrazol-4-yl)quinazoline]",1.9,6.7,4.5
"Cn1cc(-c2ncnc3cc(OC4CC4)c(NC(=O)C4(C(F)(F)F)CC4)nc23)c(-c2ccccc2)n1 [Example 463, N-[7-cyclopropoxy-4-(1-methyl-3-phenyl-1H-pyrazol-4-yl)pyrido[3,2-d]pyrimidin-6-yl]-1-(trifluoromethyl)cyclopropane-1-carboxamide]",0.8,1.7,3.9
"COc1cc2ncnc(-c3cn(C)nc3-c3ccc(F)cc3F)c2nc1NC(=O)C12CC(C1)C2 [Example 421, N-(4-(3-(2,4-difluorophenyl)-1-methyl-1H-pyrazol-4-yl)-7-methoxypyrido[3,2-d]pyrimidin-6-yl)bicyclo[1.1.1]pentane-1-carboxamide]",1.8,1.9,1.3
"COc1cc2ncnc(-c3cn(C)nc3-c3ccccc3)c2nc1-c1ccc2c(c1)CN(C)C2=O [Example 153, 5-(7-methoxy-4-(1-methyl-3-phenyl-1H-pyrazol-4-yl)pyrido[3,2-d]pyrimidin-6-yl)-2-methylisoindolin-1-one]",0.5,0.9,1
"CCOc1cc2ncnc(-c3cn(C)nc3-c3ccccc3)c2cc1N1CCN(C)C[C@@H]1C [Example 174, (S)-6-(2,4-dimethylpiperazin-1-yl)-7-ethoxy-4-(1-methyl-3-phenyl-1H-pyrazol-4-yl)quinazoline]",2.3,3.4,2.8
"COc1cc2ncnc(-c3cn(C)nc3-c3ccccc3)c2nc1NC(=O)C12CCCN1CCC2 [Example 368, N-(7-methoxy-4-(1-methyl-3-phenyl-1H-pyrazol-4-yl)pyrido[3,2-d]pyrimidin-6-yl)tetrahydro-1H-pyrrolizine-7a(5H)-carboxamide]",1.5,4.6,3.9
"COc1cc2ncnc(-c3cn(C)nc3-c3ccccc3)c2cc1-c1cccc2c1nc(CO)n2C [Example 148, (4-(7-methoxy-4-(1-methyl-3-phenyl-1H-pyrazol-4-yl)quinazolin-6-yl)-1-methyl-1H-benzo[d]imidazol-2-yl)methanol]",3,8.3,7
"COc1cc2ncnc(-c3cn(C)nc3-c3ccccc3)c2nc1OC(C)c1nnnn1C (stereo not drawn) [Example 29, 7-methoxy-6-(1-(1-methyl-1H-tetrazol-5-yl)ethoxy)-4-(1-methyl-3-phenyl-1H-pyrazol-4-yl)pyrido[3,2-d]pyrimidine]",1.9,11.3,4.8
"COc1cc2ncnc(-c3cn(C4COC4)nc3-c3ccccc3)c2cc1OC(=O)N1CCN(C)C[C@@H]1C [Example 69, 7-methoxy-4-(1-(oxetan-3-yl)-3-phenyl-1H-pyrazol-4-yl)quinazolin-6-yl (S)-2,4-dimethylpiperazine-1-carboxylate]",3.1,5.8,7.1
"COc1cc2ncnc(-c3cn(CC(F)F)nc3-c3ccccc3)c2nc1NC(=O)[C@H]1CCN1C [Example 391, (R)—N-(4-(1-(2,2-difluoroethyl)-3-phenyl-1H-pyrazol-4-yl)-7-methoxypyrido[3,2-d]pyrimidin-6-yl)-1-methylazetidine-2-carboxamide]",1.3,0.7,2.5
"COc1cc2ncnc(-c3cn(C)nc3-c3ccccc3)c2cc1OC(=O)N1CCN2CCCC2C1 (stereo in doubt) [Example 84, 7-methoxy-4-(1-methyl-3-phenyl-1H-pyrazol-4-yl)quinazolin-6-yl (S)-hexahydropyrrolo[1,2-a]pyrazine-2(1H)-carboxylate]",3.3,6.5,4.9
"COc1cc2ncnc(-c3cn(C)nc3-c3ccccc3)c2nc1NC(=O)[C@@]1(C(F)(F)F)CCCN1C (single isomer, unassigned) [Example 429, (R)—N-(7-methoxy-4-(1-methyl-3-phenyl-1H-pyrazol-4-yl)pyrido[3,2-d]pyrimidin-6-yl)-1-methyl-2-(trifluoromethyl) pyrrolidine-2-carboxamide or (S)—N-(7-methoxy-4-(1-methyl-3-phenyl-1H-pyrazol-4-yl)pyrido[3,2-d]pyrimidin-6-yl)-1-methyl-2-(trifluoromethyl) pyrrolidine-2-carboxamide]",2.7,11.4,5.9

# Other lines, results leading:
IC50 [1] [nM],IC50 [2] [nM],IC50 [3] [nM],Compound
2.2,4.9,3,"COc1cc2ncnc(-c3cn(C)nc3-c3ccccc3)c2cc1OC(=O)N1CCO[C@@H]2C[C@@H]21 (racemic) [Example 83, Cis-rac-7-methoxy-4-(1-methyl-3-phenyl-1H-pyrazol-4-yl)quinazolin-6-yl (1R,6S)-2-oxa-5-azabicyclo[4.1.0]heptane-5-carboxylate]"
2.5,6.8,4.5,"CC(C)Oc1cc2ncnc(-c3cn(C)nc3-c3ccccc3)c2cc1OC(=O)N1CCOC[C@H]1C [Example 71, 7-isopropoxy-4-(1-methyl-3-phenyl-1H-pyrazol-4-yl)quinazolin-6-yl (R)-3-methylmorpholine-4-carboxylate]"
1.5,1.3,2,"CCC(=O)Nc1cc2c(-c3cn(C4CCOCC4)nc3-c3ccccc3)ncnc2cc1OC [Example 248, N-(7-methoxy-4-(3-phenyl-1-(tetrahydro-2H-pyran-4-yl)-1H-pyrazol-4-yl)quinazolin-6-yl)propionamide]"
1.7,6.4,2.9,"COc1cc2ncnc(-c3cn(C)nc3-c3ccccc3)c2cc1N1CCC[C@H](O)C1 [Example 164, (S)-1-(7-methoxy-4-(1-methyl-3-phenyl-1H-pyrazol-4-yl)quinazolin-6-yl) piperidin-3-ol]"
1,1.5,1.7,"COc1cc2ncnc(-c3cn(C)nc3-c3ccccc3)c2cc1NC(=O)c1c(F)cccc1F [Example 331, 2,6-difluoro-N-(7-methoxy-4-(1-methyl-3-phenyl-1H-pyrazol-4-yl)quinazolin-6-yl)benzamide]"
1.4,2.1,2.2,"CCC(=O)Nc1cc2c(-c3cn(C4COC4)nc3-c3ccccc3)ncnc2cc1OC [Example 249, N-(7-methoxy-4-(1-(oxetan-3-yl)-3-phenyl-1H-pyrazol-4-yl)quinazolin-6-yl)propionamide]"
1.5,4,2.6,"COc1cc2ncnc(-c3cn(C)nc3-c3ccccc3)c2cc1NC(=O)c1cnn(C(F)(F)F)c1 [Example 187, N-(7-methoxy-4-(1-methyl-3-phenyl-1H-pyrazol-4-yl)quinazolin-6-yl)-1-(trifluoromethyl)-1H-pyrazole-4-carboxamide]"
2.6,6,7,"CCOc1cc2ncnc(-c3cn(C)nc3-c3ccccc3)c2cc1N1CCN(C)CC1 [Example 162, 7-ethoxy-4-(1-methyl-3-phenyl-1H-pyrazol-4-yl)-6-(4-methylpiperazin-1-yl)quinazoline]"
1.8,10.9,3.4,"CCn1cc(-c2ncnc3cc(OC)c([C@@H](C)O)cc23)c(-c2ccccc2)n1 (single isomer, unassigned) [Example 106, (R)-1-(4-(1-ethyl-3-phenyl-1H-pyrazol-4-yl)-7-methoxyquinazolin-6-yl)ethan-1-ol or (S)-1-(4-(1-ethyl-3-phenyl-1H-pyrazol-4-yl)-7-methoxyquinazolin-6-yl)ethan-1-ol]"
5.2,16.1,21.5,"COc1cc2ncnc(-c3cn(C)nc3-c3ccccc3)c2cc1[C@@H]1CN(C)CCO1 [Example 130, (R)-2-(7-methoxy-4-(1-methyl-3-phenyl-1H-pyrazol-4-yl)quinazolin-6-yl)-4-methylmorpholine]"
